Test results reported in patent US6011000A, “Compositions for the treatment of blood disorders” (priority 1995, dated 2000).

Experiments:
[1] = tested on: γ globin mRNA of bone marrow cells; settings: cited from earlier work
[2] = tested on: system A transport (K562 cells and nucleated erythroblasts from fetal liver); assay: Effects on system A amino acid transport (3H-MAIB uptake); format: cell-based, human
Protocol: Inhibition of nutrient uptake is undesirable for treatment of anemias. Methyl aminoisobutyric acid (MAIB) labeled with tritium (^3 H) is normally taken up by system A amino acid transport. Cold (unlabeled) compounds were added to cultures containing ^3 H-MAIB and incubated for 1 hour. Cells were harvested and the amount of ^3 H taken up by cells was quantitated by scintillation counting.

MCF-7 cells = assay: Growth/viability of human mammary carcinoma cells; format: cell-based; settings: MCF7, 96 h, 1.0 mM, 4 days, read-out: growth decrease of MCF-7 cells
Protocol: Human mammary carcinoma cells (MCF-7) were cultured alone (controls) and with arginine butyrate or isobutyramide for 4 days. Viability was assayed by FACS after incubation with a fluorescent dye taken up by viable cells (FIG. 6). Growth was decreased by 50% with isobutyramide at 1.0 mM, about 60% with arginine butyrate at 0.5 mM, and greater than 90% with arginine butyrate at 1.0 mM.

[3] = tested on: γ-globin promoter (-61 construct, K562 cells); format: cell-based, human
From the text: Functional assay underscores the important role of FRE-γ1 in γ-globin gene expression in K562 cells. To ascertain whether the FRE elements of the γ-globin promoter that were identified by in vivo footprinting were indeed involved in arginine butyrate inducibility for γ-globin gene expression, a series of 5' deletion constructs of the γ-globin promoter, extending from -256 to -61, were constructed and linked them to the NEO gene. Activity of the NEO gene of these constructs, in response to arginine butyrate treatment, was examined by transfecting these reporters into K562 cells. In K562 cells, a construct driven by 256 bp of promoter was able to direct NEO activity expression, resulting in colony formation. […] Deletion to position -61 reduced promoter activity to 33-40% of the activity seen with the -256 bp construct.

human erythroid cells = assay: DNA fragmentation by flow cytometry (degradation of DNA); format: cell-based
Protocol: Such activities might limit their utility for treatment of anemias such as occur in thalassemia, but alternatively would be useful for anticancer effects. To determine cell viability, human erythroid cells were cultured in the presence and absence of these compounds for 4 days and the amount of DNA fragmentation which occurred was measured.
Flow cytometric determination of DNA profiles and DNA fragmentation were determined. Cytometric analysis was performed with a FACScan (Becton Dickenson Instruments; Columbia, Md.). The data analysis and display were performed using the Cell-Fit software program. Approximately 0.5×10^6 cells were washed twice with PBS and resuspended in 1 ml of 1% sodium citrate, 0.1% Triton X-100 and 50 μg of propidium iodide/ml. Resulting permeabilized cells were kept in the dark at 4° C. overnight before DNA profile or DNA fragmentation analysis (Table 4).

[4] = tested on: erythroid cells (peripheral blood); assay: Erythroid cell viability by fluorescent staining (Calcein-AM), FIG. 2; format: cell-based, human; settings: 0.5 mM, vs untreated controls
Protocol: FIG. 2 Peripheral blood cell viability after incubation with arginine butyrate, dihydrocinnamic acid, phenoxyacetic acid and butyric acid ethyl ester.
Compositions were tested for the ability to directly stimulate erythroid cell growth. Cell growth stimulation is a useful property for an agent to be used to treat anemias and distinguishes such agents from the cytotoxic drugs currently being tested for treatment of hemoglobinopathies. Cell viability analyses were performed using fluorescent staining to detect living cells. Cells were in log phase of growth in 6-well dishes when used in proliferation assays. For enumeration of living cells, wells were washed once with medium to remove nonadherent or dead cells. Remaining live cells were labeled with 2 μM 2',7'-bis-(carboxyethyl)-5-(and 6)-carboxy-fluorescein acetoxy-methyl ester (Calcein-AM) (Molecular Probes; Eugene, Oreg.) for 20 minutes at 37° C. and washed once. Fluorescence intensity of live cells was read on a CytoFluor 2300 Fluorescence Plate Scanner (Millipore; Bedford, Mass.) at excitation and emission wavelengths of 485 and 530 nm, respectively. The fluorescence intensity of a well was proportional to the number of living cells in the well. Background fluorescence was measured separately for each plate and subtracted from all readings. Each experiment was performed in triplicate or quadruplicate. The standard deviation (SD) of repetitive readings was less than 30% of the mean. Results are depicted in FIG. 2.

[5] = Hemoglobin and red blood cell levels in a patient with thalassemia intermedia; format: in vivo, human; set-up: Hgb-A1 / Hgb-A2 / HbF: unit not given here; settings: for RBC: 50 mg/kg 3 days/week
Protocol: This patient received isobutyramide at 50 mg/kg for 3 days/week over the course of the study.

fetal globin production = settings: cited from earlier work
[6] = 50 mg/kg, 3 days/week, four month study

Nc1ncn([C@@H]2O[C@H](CO)[C@@H](O)[C@H]2O)c(=O)n1 [AZA, 5-azacytidine]
increase in γ globin mRNA of bone marrow cells ([1]; continuous intravenous): five- to seven-fold increase
population of stem cells in the bone marrow ([1]; in vivo): significant alterations in the population of stem cells in the bone marrow

CC(C)C(N)=O [IBT, isobutyramide]
system A (neutral) amino acid transport [2]: inhibited the neutral amino acid transport mechanism
inhibition at 1000 µM (MCF-7 cells): 50%
induction of construct activity [3]: 2.5-4 fold
proportion of degraded DNA (human erythroid cells; 1.0 mM to 2.0 mM, untreated 26%): 44%
Degraded DNA (human erythroid cells; 2.0 mM, 4 days, control 26%, 22%): 34%
DNA fragmentation / cell viability / DNA integrity (human erythroid cells; DNA fragmentation assays): decrease cell viability
erythroid cell growth and proliferation [4]: either had no effect or stimulated erythroid cell growth and proliferation
rise in hematocrit (Hct) [5, 6]: 5.8%
rise in hemoglobin (Hgb) [5, 6]: 1.6 g/dL
rise in reticulocytes (Retics) [5, 6]: about 50%
rise in total red blood cells (RBC) [5, 6]: ~10^6 /μl
total red blood cells (RBC) at end ([5]; 50 mg/kg, 3 days/week, four month study, from 6.48): 7.3 10^6 cells/μl
hemoglobin (Hgb) at end ([5]; 50 mg/kg, 3 days/week, four month study, from 10.1): 11.7 g/dL
hematocrit (Hct) at end ([5]; 50 mg/kg, 3 days/week, four month study, from 31.0%): 36.9%
HbF ([5]; Day 1): 4.4
Hct ([5]; Day 1): 31.1%
Hgb ([5]; Day 1): 10.1 g/dL
Hgb-A1 ([5]; Day 1): 89.2
Hgb-A2 ([5]; Day 1): 6.4
RBC ([5]; Day 1): 6.48 10^6 cells/μl
HbF ([5]; Day 8): 6.4
Hct ([5]; Day 8): 36.2%
Hgb ([5]; Day 8): 10.8 g/dL
Hgb-A1 ([5]; Day 8): 89.2
Hgb-A2 ([5]; Day 8): 6.2
RBC ([5]; Day 8): 6.76 10^6 cells/μl
HbF ([5]; Day 15): 4.4
Hct ([5]; Day 15): 37.0%
Hgb ([5]; Day 15): 11.1 g/dL
Hgb-A1 ([5]; Day 15): 89.2
Hgb-A2 ([5]; Day 15): 6.4
RBC ([5]; Day 15): 6.89 10^6 cells/μl
HbF ([5]; Day 22): 0.4
Hct ([5]; Day 22): 34.1%
Hgb ([5]; Day 22): 10.3 g/dL
Hgb-A1 ([5]; Day 22): 89.1
Hgb-A2 ([5]; Day 22): 6.9
RBC ([5]; Day 22): 6.28 10^6 cells/μl
HbF ([5]; Day 29): 4.4
Hct ([5]; Day 29): 36.3%
Hgb ([5]; Day 29): 10.9 g/dL
Hgb-A1 ([5]; Day 29): 88.6
Hgb-A2 ([5]; Day 29): 7.0
RBC ([5]; Day 29): 6.61 10^6 cells/μl
HbF ([5]; Day 36): 0.4
Hct ([5]; Day 36): 33.8%
Hgb ([5]; Day 36): 10.4 g/dL
Hgb-A1 ([5]; Day 36): 88.4
Hgb-A2 ([5]; Day 36): 7.6
RBC ([5]; Day 36): 6.28 10^6 cells/μl
HbF ([5]; Day 43): 8.4
Hct ([5]; Day 43): 36.2%
Hgb ([5]; Day 43): 11.0 g/dL
Hgb-A1 ([5]; Day 43): 88.7
Hgb-A2 ([5]; Day 43): 6.5
RBC ([5]; Day 43): 6.38 10^6 cells/μl
HbF ([5]; Day 55): 5.4
Hct ([5]; Day 55): 34.0%
Hgb ([5]; Day 55): 11.4 g/dL
RBC ([5]; Day 55): 6.68 10^6 cells/μl
HbF ([5]; Day 68): 1.4
Hct ([5]; Day 68): 36.4%
Hgb ([5]; Day 68): 11.5 g/dL
RBC ([5]; Day 68): 6.68 10^6 cells/μl
Hct ([5]; Day 96): 36.9%
Hgb ([5]; Day 96): 11.7 g/dL
RBC ([5]; Day 96): 7.33 10^6 cells/μl
fetal globin (HbF) ([5]; four month study): lack of increased fetal globin (HbF)
Hemoglobin-A1 level ([5]; throughout the study): approximately constant
hemoglobin-A2 level ([5]; throughout the study): approximately constant
stimulation of fetal globin production (fetal globin production): effective in stimulating fetal globin production
